Measurements: PubChem BioAssay (NCI)
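Compound exposure: 48 hours, 5 concentrations, 96-well plates. Abbreviation: GI50, concentration required for 50% inhibition of growth. At the TGI there is no net growth.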

Key:
Test in all cases: NCI anticancer screen, dose series, 48 h
HOP-92 NSCLC = system: HOP-92 NSCLC
NCI-H226 lung = system: NCI-H226 lung
U251 CNS = system: U251 CNS
SF-295 CNS = system: SF-295 CNS
COLO 205 colon = system: COLO 205 colon
LOX IMVI melanoma = system: LOX IMVI melanoma
MALME-3M melanoma = system: MALME-3M melanoma
HCC-2998 colon = system: HCC-2998 colon
IGROV1 ovarian = system: IGROV1 ovarian
SW-620 colon = system: SW-620 colon
HCT-15 colon = system: HCT-15 colon
NCI/ADR-RES ovarian = system: NCI/ADR-RES ovarian
HOP-62 NSCLC = system: HOP-62 NSCLC
SF-268 CNS = system: SF-268 CNS
RXF 393 renal = system: RXF 393 renal
OVCAR-5 ovarian = system: OVCAR-5 ovarian
SF-539 CNS = system: SF-539 CNS

Structure (SMILES)	TGI (HOP-92 NSCLC) [µM]	TGI (NCI-H226 lung) [µM]	TGI (U251 CNS) [µM]	TGI (SF-295 CNS) [µM]	TGI (COLO 205 colon) [µM]	TGI (LOX IMVI melanoma) [µM]	TGI (MALME-3M melanoma) [µM]	TGI (HCC-2998 colon) [µM]	TGI (IGROV1 ovarian) [µM]	TGI (SW-620 colon) [µM]	TGI (HCT-15 colon) [µM]	TGI (NCI/ADR-RES ovarian) [µM]	TGI (HOP-62 NSCLC) [µM]	TGI (SF-268 CNS) [µM]	TGI (RXF 393 renal) [µM]	TGI (OVCAR-5 ovarian) [µM]	TGI (SF-539 CNS) [µM]	GI50 (HOP-92 NSCLC) [µM]	GI50 (SF-295 CNS) [µM]	GI50 (NCI/ADR-RES ovarian) [µM]
C/C=C(/C)C(=O)O[C@@H]1c2c(C)coc2C[C@H]2CC[C@H](O)[C@H](C)[C@]21C	> 100	> 100	> 100	> 100	> 100	> 100	77.9	> 100	> 100	> 100	> 100	55.9	> 100	> 100	78.2	> 100	87			
[Cl-].[Rh+3].c1ccc(-c2ccnc3c2ccc2c(-c4ccccc4)ccnc23)cc1.c1ccc(-c2ccnc3c2ccc2c(-c4ccccc4)ccnc23)cc1.c1ccc(-c2ccnc3c2ccc2c(-c4ccccc4)ccnc23)cc1	> 77.9	> 100	> 100	> 100	43.3	> 100	82.9	50	> 100	> 100	> 100	> 100	> 100	> 100	> 100	> 100	> 76	19	31.3	73.2
O=[N+]([O-])c1ccc(/C=C/c2ccc(N=Nc3ccc(/C=C/c4ccc([N+](=O)[O-])cc4S(=O)(=O)O)c(S(=O)(=O)O)c3)cc2S(=O)(=O)O)c(S(=O)(=O)O)c1	> 94.3	> 100	> 100	> 100	> 100	> 100	> 100	> 100	> 100	> 100	> 100	> 100	> 100	> 100	> 100	> 100	> 100			
